According to patent publication US20140343095A1, “Methods of Diagnosing and Treating Multiple Sclerosis” (The Brigham and Women's Hospital, Inc., priority 2009, published 2014):

Key:
[1] = molecular target: T1, PARP-1 (Homo sapiens, UniProt P09874); assay: PARP-1 enzymatic activity in human PBMCs (PARP HT Universal Colorimetric Kit); type: cell-based; set-up: endogenous in cells; host or cells: human PBMCs / monocytes / dendritic cells / T and B cells from healthy controls and MS patients; conditions: healthy controls, 1 ug/ml 15-HC
Description: PARP-1 enzymatic activity (10A) and TNFalpha and CCL2 (10B) of PBMCs incubated with 15-HC alone, or in combination with AIQ, blocking antibodies to TLR2 or IC control.
To investigate whether the TLR2/PARP-1 axis is functional in human we activated PBMCs from healthy controls with 15-HC, in the presence or not of PARP-1 or TLR2 inhibitors.

[2] = molecular target: T1, PARP-1; assay: FACS-based detection of PARP-1 activity (PAR staining) in human monocytes / PBMCs; type: cell-based; set-up: endogenous in cells; host or cells: human PBMCs / monocytes / dendritic cells / T and B cells from healthy controls and MS patients
Description: FIGS. 11A-B are show the results of FACS-based detection of PARP-1 activity. 11A. a set of five histograms showing PAR staining (as detected by FACS) of PBMCs incubated with 15-HC alone, or in combination with AIQ, blocking antibodies to TLR2 (TLR2 BL), or IC control (TLR2 IC). 11B, a line graph showing the correlation of PAR staining as detected by FACS with PARP-1 enzymatic activity detected on PBMCs activated with different concentration of 15-HC.
14A is a set of fifteen histograms showing PAR staining of PBMCs taken from HC (left column), RRMS (center column) or SPMS (right column) patients and unstimulated (top row) or activated with 15-HC alone (second row), or in combination with AIQ (third row), blocking antibodies to TLR2 (fourth row) or IC control (bottom row). 14B is a bar graph showing the mean fluorescence intensity (MFI)±SD of 5 samples/group from the histograms in 14A.
15A is a set of 24 histograms showing PAR staining of PBMCs taken from HC (left column), RRMS (center column) or SPMS (right column) patients and unstimulated (top row) or activated with pgLPS (second row), polyIC (third row), ecLPS (fourth row), flagellin (row 5), imiquimod (row 6), ssRNA (row 7) or CpG (row 8). 15B is a bar graph showing the mean fluorescence intensity (MFI)±SD of 5 samples/group from the histograms in […].
A new FACS-based method was developed to detect PARP-1 activation based on the intracellular detection of the PARP-1 product PAR with specific antibodies. Briefly, the cells were incubated with antibodies to CD16/32 to block unspecific antibody binding, and then stained for surface markers. After washing, the cells were permeabilized with Fix/Perm (BD), and then stained with rabbit anti-PAR antibodies (or control rabbit IgG) for 30′ at 4° C., followed by anti-rabbit PE for 30′ at room temperature. The samples were then analyzed by FACS.

[3] = test system: PARP-1; assay: FACS PARP-1 activity in innate and adaptive immune cells treated with HSP60 or 15-HC; type: cell-based, human; conditions: HSP60 1, 5, 10 ng/ml, 15-HC 1, 5, 10 ug/ml
Source text: FIGS. 17A-C are bar graphs showing that 15-HC, but not HSP60, activates PARP-1 in cells of the innate immune system. Mean PARP-1 activity as determined by FACS in classical monocytes (17A), inflammatory monocytes (17B) and dendritic cells (17C) of healthy controls (HC) treated with activated with HSP60, 15-HC or left untreated. The data are shown as mean fluorescence intensity (MFI)±SD of 5 samples/group.
FIGS. 18A-C are bar graphs showing that both 15-HC and HSP60 activate PARP-1 in cells of the adaptive immune system. Mean PARP-1 activity as determined by FACS in CD4+ T cells (18A), CD8+ T cells (18B) and B cells (18C) of healthy controls (HC) treated with activated with HSP60, 15-HC or left untreated. The data are shown as mean fluorescence intensity (MFI)±SD of 5 samples/group.
A new FACS-based method was developed to detect PARP-1 activation based on the intracellular detection of the PARP-1 product PAR with specific antibodies. Briefly, the cells were incubated with antibodies to CD16/32 to block unspecific antibody binding, and then stained for surface markers. […] The samples were then analyzed by FACS.
To investigate whether the increased activity of the TLR2/PARP-1 axis in SPMS patients resulted from increased levels of TLR2 ligands, the levels of 15-HC and HSP60 were measured in serum samples from healthy controls, RRMS and SPMS patients. […]

[4] = molecular target: PARP-1 (Mus musculus, UniProt P11103); assay: Cellular PARP-1 activity in microglia, macrophages or astrocytes; type: cell-based; set-up: host or cells: C8B4 microglia, C8-D1A astrocytes, Raw 264.7 macrophages
Description: Data is shown as Mean±SEM. 4B, a pair of bar graphs showing PARP-1 activity measured in microglia, macrophages or astrocytes incubated with 15-HC or 7-KC. The data is shown as the fold of change between vehicle and lipid-treated cells (Mean±SEM).
5A, a bar graph showing the time course of microglial PARP-1 activation by 15-oxysterols or 7-KC. PARP-1 activity is shown as Mean±SEM. […] (Mean±SEM) 5C, a bar graph showing activation of microglial PARP-1 by 15-HC in the presence of kinase inhibitors (Mean±SEM).
6A, a set of three bar graphs showing PARP-1 activity in microglia, macrophages or astrocytes activated with 15-HC in the presence of blocking antibodies to TLR2 or TLR4, or isotype controls (Mean±SEM).
PARP-1 activity was measured using PARP HT Universal Colorimetric Kit (Trevigen, MD, USA), following manufacturer instructions.
Cells were cultured with DMEM supplemented with 10% fetal bovine serum, 2 mM L-glutamine, 25 mM HEPES, and 1 mM sodium pyruvate. Cells in logarithmic growth were treated with 1 μg/ml of 15-HC for 1, 5, 15, and 30 minutes in serum-free medium. Blocking antibodies (Ebioscience, San Diego, Calif., USA) were added in some experiments at a final concentration of 10 ug/ml.

[5] = test system: human monocytes; assay: TNFa and CCL2 production by human monocytes; type: cell-based; conditions: 1 ug/ml 15-HC
Description: FIGS. 10A and 10B are bar graphs showing TLR2 mediated activation of PARP-1 by 15-HC. PARP-1 enzymatic activity (10A) and TNFalpha and CCL2 (10B) of PBMCs incubated with 15-HC alone, or in combination with AIQ, blocking antibodies to TLR2 or IC control.
To investigate whether the TLR2/PARP-1 axis is functional in human we activated PBMCs from healthy controls with 15-HC, in the presence or not of PARP-1 or TLR2 inhibitors. […] Thus, 15-HC activates PARP-1 in human monocytes by a TLR2 dependent pathway that results in the release of the pro-inflammatory mediators TNFa and CCL2.

T1 sequence (P09874 whole entry): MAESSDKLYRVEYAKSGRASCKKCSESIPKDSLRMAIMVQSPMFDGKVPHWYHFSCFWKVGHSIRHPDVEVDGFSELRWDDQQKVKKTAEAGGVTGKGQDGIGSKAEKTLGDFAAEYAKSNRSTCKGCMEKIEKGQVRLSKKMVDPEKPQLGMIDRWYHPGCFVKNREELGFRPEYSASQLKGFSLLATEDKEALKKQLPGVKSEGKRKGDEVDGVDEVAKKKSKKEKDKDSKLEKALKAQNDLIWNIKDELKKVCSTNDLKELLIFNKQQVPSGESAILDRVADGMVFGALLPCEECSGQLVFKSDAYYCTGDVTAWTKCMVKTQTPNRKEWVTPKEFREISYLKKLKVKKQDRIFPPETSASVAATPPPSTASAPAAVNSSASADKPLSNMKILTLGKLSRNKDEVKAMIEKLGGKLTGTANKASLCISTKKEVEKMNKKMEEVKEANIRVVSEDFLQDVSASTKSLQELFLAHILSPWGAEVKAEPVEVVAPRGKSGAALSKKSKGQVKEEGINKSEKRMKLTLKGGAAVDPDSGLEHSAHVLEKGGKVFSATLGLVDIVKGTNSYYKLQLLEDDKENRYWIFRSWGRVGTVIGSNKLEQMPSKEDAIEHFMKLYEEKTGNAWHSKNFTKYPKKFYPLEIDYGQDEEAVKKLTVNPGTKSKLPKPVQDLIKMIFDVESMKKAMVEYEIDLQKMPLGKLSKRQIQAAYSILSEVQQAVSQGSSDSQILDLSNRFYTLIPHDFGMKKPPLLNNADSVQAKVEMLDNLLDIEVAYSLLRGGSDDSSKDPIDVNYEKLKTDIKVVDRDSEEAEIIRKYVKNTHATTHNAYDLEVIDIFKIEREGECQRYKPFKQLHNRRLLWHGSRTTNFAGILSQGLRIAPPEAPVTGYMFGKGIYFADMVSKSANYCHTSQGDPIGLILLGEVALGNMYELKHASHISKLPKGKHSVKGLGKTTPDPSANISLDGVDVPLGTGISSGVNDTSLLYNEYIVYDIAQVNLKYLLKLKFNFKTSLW
PARP-1 (Mus musculus, UniProt P11103), sequence (P11103 whole entry): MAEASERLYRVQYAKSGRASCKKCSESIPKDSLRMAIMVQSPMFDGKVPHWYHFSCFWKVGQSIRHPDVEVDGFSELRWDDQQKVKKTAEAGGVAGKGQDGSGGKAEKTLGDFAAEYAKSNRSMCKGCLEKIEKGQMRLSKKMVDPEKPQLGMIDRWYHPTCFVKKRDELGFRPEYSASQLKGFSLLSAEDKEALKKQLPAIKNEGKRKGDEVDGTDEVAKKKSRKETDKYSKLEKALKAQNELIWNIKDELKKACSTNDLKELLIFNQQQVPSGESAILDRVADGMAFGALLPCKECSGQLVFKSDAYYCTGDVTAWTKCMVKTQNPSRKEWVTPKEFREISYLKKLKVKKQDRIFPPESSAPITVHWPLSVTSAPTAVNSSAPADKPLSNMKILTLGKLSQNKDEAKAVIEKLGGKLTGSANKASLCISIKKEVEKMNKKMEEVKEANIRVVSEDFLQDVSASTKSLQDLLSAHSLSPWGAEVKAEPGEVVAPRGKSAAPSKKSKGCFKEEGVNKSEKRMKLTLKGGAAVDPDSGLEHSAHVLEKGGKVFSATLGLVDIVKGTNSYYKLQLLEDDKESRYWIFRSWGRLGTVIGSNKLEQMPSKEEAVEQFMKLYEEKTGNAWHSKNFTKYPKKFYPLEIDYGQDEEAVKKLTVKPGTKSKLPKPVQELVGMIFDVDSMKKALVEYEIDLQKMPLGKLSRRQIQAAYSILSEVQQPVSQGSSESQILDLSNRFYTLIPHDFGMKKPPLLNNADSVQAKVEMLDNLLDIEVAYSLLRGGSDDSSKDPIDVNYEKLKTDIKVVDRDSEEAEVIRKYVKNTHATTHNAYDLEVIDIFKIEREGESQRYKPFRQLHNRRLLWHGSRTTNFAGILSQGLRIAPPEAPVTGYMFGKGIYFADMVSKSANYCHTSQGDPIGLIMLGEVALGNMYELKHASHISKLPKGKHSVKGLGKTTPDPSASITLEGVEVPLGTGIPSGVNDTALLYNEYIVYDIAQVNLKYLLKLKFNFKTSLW

15-hydroxycholestene [15-HC] was tested, and the “PARP-1 enzymatic activity in human PBMCs” value [1] was “results in the activation”, the “inhibition of 15-HC-induced PARP-1 activation in monocytes from healthy controls, RRMS and SPMS patients” value ([2]; all three experimental groups) was “could be inhibited” and the “PAR staining (FACS)” value ([2]; human monocytes activated by 15-HC) was “significant increase”. For the same substance, the “PARP-1 activation in cells of the adaptive immune system (FIG. 18)” value ([3]; CD4+ T cells, CD8+ T cells, B cells of healthy controls) was “could activate”, the “PARP-1 activation in cells of the innate immune system (FIG. 17)” value ([3]; classical monocytes, inflammatory monocytes, dendritic cells of healthy controls) was “only 15-HC could activate” and the “incubation time resulting in activation of PARP-1” value ([4]; macrophages or microglia) was 5 min. The “activation of cellular PARP-1” value ([4]; macrophages, microglia or astrocytes) was “dose-dependent activation” and the “production of TNFa and CCL2” value [5] was “resulted in production”.
